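Step 1: Grow cells in 96-well plates. Step 2: Expose to compound for 48 hours at 5 concentrations. Step 3: Interpolate endpoints linearly; if unreached, use highest concentration. GI50: concentration for 50% inhibition of growth. TGI is the concentration that stops growth completely.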

Among the test systems are OVCAR-4 ovarian; TK-10 renal; SK-MEL-28 melanoma; SN12C renal; SF-295 CNS; SK-MEL-5 melanoma; UACC-62 melanoma; SW-620 colon; MALME-3M melanoma.
What all share (test): inhibition of tumour cell growth, NCI panel, 48 h

With `C=C/C=C(\NC(=O)C(Cl)(Cl)Cl)[Si](C)(C)C`, the TGI with OVCAR-4 ovarian, in the test on TK-10 renal, with SK-MEL-28 melanoma, in the test on SN12C renal, in the test on SF-295 CNS and in the test with SK-MEL-5 melanoma was over 100 µM throughout. Besides, the TGI with UACC-62 melanoma, in the test on SW-620 colon and with MALME-3M melanoma was over 100 µM throughout.
Take `COc1ccc2oc3c4c2c1CCC4CCC3=O` (configuration not stated): the TGI in the test on OVCAR-4 ovarian, in the test on TK-10 renal, in the test with SK-MEL-28 melanoma, in the test with SN12C renal, with SF-295 CNS and in the test on SK-MEL-5 melanoma was over 100 µM each time. The TGI in the test on UACC-62 melanoma, in the test with SW-620 colon and in the test with MALME-3M melanoma was over 100 µM in each case.
Regarding `Cc1ccc(-c2nc(SCC(=O)O)n[nH]2)cc1`, the TGI in the test with OVCAR-4 ovarian, with TK-10 renal, with SK-MEL-28 melanoma, in the test with SN12C renal, in the test with SF-295 CNS and with SK-MEL-5 melanoma was over 100 µM in each case. For the same molecule, the TGI in the test on UACC-62 melanoma, in the test with SW-620 colon and in the test with MALME-3M melanoma was over 100 µM throughout.
In the case of `COc1ccc(-c2ccc(/C=N/n3c(COc4ccccc4Cl)nn(CN4CCN(C)CC4)c3=S)o2)c([N+](=O)[O-])c1`, the GI50 with TK-10 renal was 12.9 µM; with SK-MEL-28 melanoma, 24.5 µM; in the test with SN12C renal it was 17.9 µM; in the test on UACC-62 melanoma, 19.2 µM; in the test on MALME-3M melanoma, 20.9 µM. In addition, the TGI was 45.4 µM in the test with TK-10 renal; 69.4 µM in the test on SK-MEL-28 melanoma; 35.2 µM in the test on SN12C renal; 44.9 µM in the test with UACC-62 melanoma; 49.2 µM in the test on MALME-3M melanoma.
Consider `CCC[CH2][Sn]([CH2]CCC)([O]C(=O)c1cc(F)cc(F)c1)[O]C(=O)c1cc(F)cc(F)c1`, for which the GI50 is 1.6 µM in the test with OVCAR-4 ovarian; 1.3 µM in the test on TK-10 renal; 1.13 µM in the test on SK-MEL-28 melanoma; 1.35 µM in the test with SN12C renal; 1.34 µM in the test with SF-295 CNS; 1.34 µM with SK-MEL-5 melanoma. Besides, the GI50 is 1.11 µM in the test on UACC-62 melanoma, 0.564 µM with SW-620 colon and 0.508 µM with MALME-3M melanoma. Besides, the TGI in the test with OVCAR-4 ovarian is 3.01 µM; in the test on TK-10 renal it was 2.61 µM; in the test on SK-MEL-28 melanoma, 2.37 µM; in the test on SN12C renal it was 2.68 µM; in the test on SF-295 CNS it was 2.62 µM; in the test on SK-MEL-5 melanoma, 2.61 µM. For the same molecule, the TGI in the test with UACC-62 melanoma came out at 2.31 µM; in the test on SW-620 colon, 1.81 µM; with MALME-3M melanoma, 1.75 µM.
With `N#CC(C(=O)/C(=N\Nc1nc(=S)[nH]n1N)C(C#N)c1ccc(Cl)cc1)c1ccc(Cl)cc1` (configuration not stated), the TGI in the test with OVCAR-4 ovarian, in the test with TK-10 renal, in the test on SK-MEL-28 melanoma, with SN12C renal, with SF-295 CNS and in the test on UACC-62 melanoma was over 100 µM throughout. Also, the TGI with SW-620 colon and in the test on MALME-3M melanoma was over 100 µM in each case.
As to `COC1=CC(O)(CC(N)=O)c2ccccc2C1=O` (configuration not stated), the TGI with OVCAR-4 ovarian, in the test with TK-10 renal, in the test on SK-MEL-28 melanoma, in the test with SN12C renal, in the test on SF-295 CNS and in the test on SK-MEL-5 melanoma was over 100 µM each time. The TGI in the test with UACC-62 melanoma, in the test with SW-620 colon and in the test on MALME-3M melanoma was over 100 µM each time.
As for `Cc1ccc(C2NC(=S)NC3=C2CCOc2c3ccc3ccccc23)cc1` (configuration not stated), the GI50 is 29.4 µM in the test on OVCAR-4 ovarian; over 100 µM with TK-10 renal; 57.4 µM in the test with SK-MEL-28 melanoma; over 100 µM in the test with SN12C renal; 2.98 µM in the test with MALME-3M melanoma. Moreover, the TGI in the test with OVCAR-4 ovarian was over 100 µM; in the test on TK-10 renal it was over 100 µM; in the test with SK-MEL-28 melanoma, over 100 µM; with SN12C renal, over 100 µM; with MALME-3M melanoma, 7.73 µM.
For `Cn1c2c(c3ccccc31)C1CCCCC1C1C(=O)NC(=O)C21` (configuration not stated), the TGI with OVCAR-4 ovarian, in the test with TK-10 renal, in the test on SK-MEL-28 melanoma, in the test on SN12C renal, in the test with SF-295 CNS and in the test on SK-MEL-5 melanoma was over 100 µM throughout. For the same molecule, the TGI with UACC-62 melanoma, in the test on SW-620 colon and in the test on MALME-3M melanoma was over 100 µM throughout.
As for `CN(C)c1ccc(N=Cc2c([O-])ccc3ccccc23)cc1.[C-]#[O+].[C-]#[O+].[Ir]`, the GI50 with OVCAR-4 ovarian is 12.2 µM; in the test on TK-10 renal, 22.5 µM; in the test with SN12C renal, 19 µM; with SF-295 CNS it was 20 µM; with SK-MEL-5 melanoma, 16.4 µM; in the test with UACC-62 melanoma it was 17.2 µM. The GI50 in the test with SW-620 colon was 16.7 µM; in the test on MALME-3M melanoma, 20.7 µM. For the same molecule, the TGI with OVCAR-4 ovarian was 26.1 µM; in the test on TK-10 renal, 53.3 µM; in the test with SN12C renal it was 35.5 µM; in the test with SF-295 CNS it was 55 µM; with SK-MEL-5 melanoma, 31.2 µM; with UACC-62 melanoma, 35.9 µM. Moreover, the TGI in the test on SW-620 colon came to 32.5 µM; with MALME-3M melanoma, 41.7 µM.
As to `O=S(O)CCCCCSSCCCCSSCCCCCS(=O)O`, the TGI in the test with OVCAR-4 ovarian, in the test on TK-10 renal, with SK-MEL-28 melanoma, in the test with SN12C renal, with SF-295 CNS and in the test with SK-MEL-5 melanoma was over 100 µM throughout. Moreover, the figures for the TGI with UACC-62 melanoma, in the test on SW-620 colon and with MALME-3M melanoma were over 100 µM, over 100 µM and 86.6 µM, respectively.
As for `COc1cc2c(cc1OC)-c1cc3cc(OC)c(OC)cc3n1CC2`, the TGI was over 100 µM in the test with OVCAR-4 ovarian; 51.9 µM in the test on TK-10 renal; over 100 µM with SK-MEL-28 melanoma; over 100 µM in the test with SN12C renal; over 100 µM in the test on SF-295 CNS; over 100 µM with UACC-62 melanoma. Also, the TGI was over 100 µM in the test on SW-620 colon and 72.6 µM in the test with MALME-3M melanoma.
As for `COc1ccc(/C=C2\CCCCC2=O)cc1`, the TGI in the test with OVCAR-4 ovarian, in the test on TK-10 renal, with SK-MEL-28 melanoma, in the test on SN12C renal, with SF-295 CNS and in the test with SK-MEL-5 melanoma was over 100 µM each time. Besides, the TGI in the test with UACC-62 melanoma and in the test with SW-620 colon was over 100 µM in each case.

For the origin of these results see PubChem BioAssay (NCI).
